Assay: in vitro
Conditions: human, hela cells, % viability

| Compound | viability at 28.5 h, 10 µM [%] | viability at 28.5 h, 10 µM (bulk resorufin, single well) [%] |
| --- | --- | --- |
| CCCc1n[nH]c(-c2ccccc2Cl)c1C(=O)OCC [CBK113547] | 107 | – |
| N#CC1(c2ccccc2)CCN(C(=O)c2ccc(S(N)(=O)=O)cc2)CC1 [CBK091397] | – | 96.5 |
| COc1ccccc1C1(O)CCCC2CN(C(C)=O)CC21 (centres unmarked) [CBK283134] | 102 | – |
| Cc1cc(C)n(CC2CN(CC(=O)NCc3cccs3)CCO2)n1 (centres unmarked) [CBK304902] | 109 | – |
| OC(CCNC1CCCCC1)(c1ccccc1)c1ccccc1 [CBK013339] | 101 | – |
| COc1ccc(C(=O)Nc2ccccc2C(=O)Nc2cccc([N+](=O)[O-])c2)cc1 [CBK265894] | 101 | – |
| O=C(NC1CCCC1)c1ncoc1-c1ccccc1 [CBK281937] | 100 | – |
| CCC1CCC2(CC1)NC(=O)N(Cc1nc(-c3cccs3)no1)C2=O (centres unmarked) [CBK305005] | 92.6 | – |
| CCc1noc(C)c1C(=O)NCc1cccnc1N(C)C1CCCCC1 [CBK306804] | 98.9 | – |
| c1ccc(COc2ccc(CN3CCN(c4ccccn4)CC3)cc2)cc1 [CBK261865] | 89.3 | – |
| O=CN1CCc2c([nH]c3cc(F)ccc23)C12CCN(CCc1cccs1)CC2 [CBK040312] | 81.2 | – |
| CN(C)Cc1cc(CN(C)C)c(O)c(C(C)(C)C)n1 [CBK260969] | 90.6 | – |
| CC(C)Nc1nc2ccccc2nc1Sc1ccncc1 [CBK115250] | 102 | – |
| CCOc1ccccc1NC(=O)CNS(=O)(=O)c1ccccc1 [CBK265860] | 86.9 | – |
| c1ccc(SCc2nc(-c3cccnc3)no2)cc1 [CBK266078] | 101 | – |
| c1ccc(C[n+]2cn3cc(-c4ccccc4)nc3[n-]2)cc1 [CBK261654] | 94 | – |
| Cc1cc(C)n(-c2cc(N3CCN(S(=O)(=O)Cc4ccccc4)CC3)ccc2[N+](=O)[O-])n1 [CBK264407] | 115 | – |
| CC(C)Cn1cncc1CNC(=O)Nc1ccc2c(cnn2C)c1 [CBK307405] | 93.8 | – |
| O=C(NCCc1c[nH]cn1)N1CCN(Cc2ccccc2)CC1 [CBK155629] | 96.4 | – |
| C=CCNC(=O)c1cnc(-c2ccc(Cl)cc2)c(-c2ccco2)c1 [CBK036738] | 90.6 | – |
| Cc1ccc(C(=O)O)cc1NC(=O)C(C)Oc1cccc(Cl)c1 (centres unmarked) [CBK268331] | 95.7 | – |
| O=C(O)c1cc(-n2c(S)nnc2-c2cnccn2)ccc1Cl [CBK269285] | 86.2 | – |

| Compound | viability at 28.5 h, 10 µM [%] | viability at 28.5 h, 10 µM (bulk resorufin, single well) [%] |
| --- | --- | --- |
| COc1cc(CNCc2cnn(C)c2)c(O)c(C(C)(C)C)c1 [CBK304721] | 85.8 | – |
| COc1cc(OC)nc(CN2C(=O)CC3(C2=O)C(=O)N(CC(=O)c2ccccc2)c2ccc(C)cc23)n1 (centres unmarked) [CBK076059] | 96.7 | – |
| Cc1oc(CSc2nnc(NCc3ccc(F)cc3)s2)cc1C(=O)O [CBK296629] | 91.6 | – |
| O=C1OCC(O)=C1C(c1ccccc1)C1CC1 (centres unmarked) [CBK010731] | 91 | – |
| Cn1cncc1C(=O)N1Cc2ccccc2C1 [CBK200329] | 106 | – |
| COc1cc(C(=O)Nc2cc(-c3nc4ncccc4o3)ccc2C)cc(OC)c1OC [CBK101133] | 97 | – |
| CCOC(=O)Cn1ccc2ccnc(-c3cccc(OC)c3)c21 [CBK284707] | 89.6 | – |
| CCOC(=O)c1c(NC(=O)CN2CCCCC2)sc2c1CCCC2O (centres unmarked) [CBK261644] | 90.5 | – |
| CSc1nsc(SCc2cnc(C)nc2N)n1 [CBK268337] | 105 | – |
| CC(C)c1nc(NCCc2nnc3n2CCCC3)nc(N(C)C)n1 [CBK306426] | 112 | – |
| CCN(CC)CCSc1nc(O)c(-c2ccccc2)c(=O)n1-c1ccccc1 [CBK263335C] | 111 | – |
| C#CC1(OC(=O)CC)CCN(CCCC(=O)c2ccc(F)cc2)CC1 [CBK025277C] | 108 | – |
| O=C(/C=C\c1ccco1)Oc1ccc(/C=N\NC(=O)c2cncc(Br)c2)cc1 [CBK261385] | 83.2 | – |
| Cn1ccc(CNCc2c(Br)cc(F)c(F)c2N2CCCCC2)n1 [CBK304763] | 105 | – |
| CCOC(=O)c1c(C(C)(C)C)oc2ccc(OCC(=O)c3ccc(OC)cc3)cc12 [CBK264950] | 123 | – |
| COc1ccc(C)cc1-n1ccc(C(=O)NC2CCSCC2)n1 [CBK305502] | 94.6 | – |
| CN(Cc1nnc(C2CC2)n1C)C1CCN(CCCc2cn[nH]c2)C1 (centres unmarked) [CBK305305] | 85.2 | – |
| Cn1cc([C@@H]2O[C@H](CO)[C@H](O)C2O)c(=O)n(C)c1=O (some centres unmarked) [CBK201191] | 97.1 | – |
| O=C1NCCCCC1N1CCS(=O)(=O)CC1 (centres unmarked) [CBK017083] | 99.2 | – |
| COC(=O)c1ccc(N2C(=O)NC(=O)/C(=C\c3ccc(OCC(=O)O)cc3)C2=O)cc1 [CBK265407] | – | 85.2 |
| O=C(NC1(CN2CCCCC2)CCCCC1)NS(=O)(=O)c1ccc(Cl)cc1 [CBK022858] | 94.4 | – |
| C=C(C)CNC(=O)c1cc(-c2cccc(NC(C)=O)c2)cnc1N(C)S(C)(=O)=O [CBK076622] | 93.9 | – |
